# Data reported in US9249132B2, “Substituted bicyclic aromatic compounds as S-nitrosoglutathione reductase inhibitors” (Nivalis Therapeutics, Inc., priority 2010, dated 2016).
# Assays:
# Type in all cases: in vivo, mouse
# [1] = tested on: dextran sodium sulfate (DSS)-induced IBD; assay: Acute prophylactic model of DSS-induced IBD
# Source text: Acute and chronic models of dextran sodium sulfate (DSS)-induced IBD in mice were used to explore efficacy of GSNORi against this disease. Acute and chronic DSS-induced IBD are widely used and well characterized models that induce pathological changes in the colon similar to those observed in the human disease. In these models and in human disease, epithelial cells within the crypts of the colon are disrupted, leading to dysfunction of the epithelial barrier and the ensuing tissue inflammation, edema, and ulceration. GSNORi therapy may benefit IBD by restoring s-nitrosoglutathione (GSNO) levels, and thus prevent or reverse the epithelial barrier dysfunction. Experimental IBD was induced by administration of DSS in the drinking water of male C57B1/6 mice (N=8 to 10 mice per group) for 6 consecutive days. GSNORi was dosed orally at doses of 0.1 to 10 mg/kg/day for 10 days starting two days prior to and continuing two days post DSS exposure. Two days post DSS exposure, the effect of GSNORi was assessed in a blinded fashion via endoscopy and histopathology using a five point scale ranging from a score=0 (normal tissue) through a score=4 (ulcerative tissue damage and marked pathological changes). Levels of circulating cytokines involved in inflammatory pathways were also assessed. The effect of GSNORi was compared to vehicle treated controls. The corticosteroid, prednisolone, was used as the positive control in this study and was administered daily at 3 mg/kg/day via oral dosing. Naïve mice (N=5) were also assessed as a normal tissue control.
# [2] = tested on: dextran sodium sulfate (DSS)-induced IBD; assay: Chronic treatment model of DSS-induced IBD
# Source text: Acute and chronic models of dextran sodium sulfate (DSS)-induced IBD in mice were used to explore efficacy of GSNORi against this disease. Acute and chronic DSS-induced IBD are widely used and well characterized models that induce pathological changes in the colon similar to those observed in the human disease. In these models and in human disease, epithelial cells within the crypts of the colon are disrupted, leading to dysfunction of the epithelial barrier and the ensuing tissue inflammation, edema, and ulceration. GSNORi therapy may benefit IBD by restoring s-nitrosoglutathione (GSNO) levels, and thus prevent or reverse the epithelial barrier dysfunction.
# Experimental IBD was induced by administration of DSS in the drinking water of male C57B1/6 mice (N=10 to 12 mice per group) for 6 consecutive days. GSNORi was dosed orally at doses of 10 mg/kg/day for 14 days starting one day after cessation of DSS exposure. Efficacy of GSNORi was assessed in a blinded fashion via endoscopy after 7 days and 14 days of GSNORi dosing and via histopathology after 14 days of GSNORi dosing using a five point scale ranging from a score=0 (normal tissue) through a score=4 (ulcerative tissue damage and marked pathological changes). Levels of circulating cytokines involved in inflammatory pathways were also assessed. The effect of GSNORi was compared to vehicle treated controls. The corticosteroid, prednisolone, was used as the positive control in this study and was administered daily at 3 mg/kg/day via oral dosing. Naïve mice (N=5) were also assessed as a normal tissue control.
# [3] = tested on: cigarette smoke-induced COPD; assay: Subchronic (11 day) cigarette smoke exposure COPD model; conditions: oral 10 mg/kg/day for 11 days
# Method: Infiltration of inflammatory cells into the bronchoalveolar lavage fluid (BALF) and BALF levels of chemokines involved in inflammation and tissue turnover/repair were measured to assess the influences of GSNOR inhibitors on some of the early events associated with the initiation and progression of COPD. […] In animal models, changes in lung pathology are only evident after extended (several months) duration of exposure to cigarette smoke, thus making chronic models prohibitive as effective screening tools. […] The key roles of inflammation in the initiation and progression of COPD, make these short duration models relevant for initial tests of efficacy of novel therapeutics. Subchronic (11 Day) Smoke Exposure Model: Female C57B1/6 mice (N=10 per group) were exposed to cigarette smoke generated from Marlboro 100 cigarettes without filters. Exposure times were 25 min. on study day 1, 35 min. on study day 2, and 45 min. on study days 3 to 11. GSNOR inhibitors were administered one hour prior to smoke exposure on each day. GSNOR inhibitors were dosed orally at 1 to 10 mg/kg/day for 11 days. The effects of GSNOR inhibitors were assessed by quantitating the number of total cells, and leukocytes differentials in the BALF via light microscopy at 24 h after the last exposure. The effect of GSNOR inhibitors were compared to vehicle treated controls and expressed as percent inhibition of the cigarette smoke induced increases in BALF cell numbers. Roflumilast was used as the positive control for the study and was dosed at 5 mg/kg/day. A group of naïve mice (N=10) was exposed to air and dosed with vehicle as a negative control for the study.
# [4] = acute model, oral 1 mg/kg/day for 10 consecutive days, prophylactic dosing regimen
# [5] = chronic model, oral 10 mg/kg/day for up to 14 consecutive days, treatment dosing regimen
structure (smiles),measurement,setting,value
"O=C(O)c1ccc(-c2ccc3cc(O)ccc3c2)c(Cl)c1 [Example 1, 3-chloro-4-(6-hydroxynaphthalen-2-yl)benzoic acid]",colon injury (in words),[1]; acute DSS-induced IBD,attenuated colon injury
same,"decrease of percent of mice presenting with severe colon injury scores via endoscopy, of vehicle control",[1]; [4],17%
same,"decrease of percent of mice presenting with severe colon injury scores via histopathology, of vehicle control",[1]; [4],21%
same,"decrease of percent of mice presenting with severe endoscopy scores, of vehicle control","[1]; acute model, oral 10 mg/kg/day for 10 days, p<0.05",72%
same,colon injury (in words),[2]; chronic DSS-induced IBD,attenuated colon injury
same,"decrease of percent of mice presenting with severe colon injury scores via endoscopy, of vehicle control",[2]; [5],50%
same,"decrease of percent of mice presenting with severe colon injury scores via histopathology, of vehicle control",[2]; [5],17%
same,inhibition of smoke-induced increase in lymphocytes in BAL,[3],41%
same,inhibition of smoke-induced increase in macrophages in BAL,[3]; p<0.05,40%
same,inhibition of smoke-induced increase in neutrophils in BAL,[3]; p<0.05,49%
same,inhibition of smoke-induced increase in total cells in BAL,[3]; p<0.05,40%
